Source: patent US10770699B2, “Stable bromine charge storage in porous carbon electrodes using tetraalkylammonium bromides for reversible solid complexation” (The Regents of the University of California, priority 2014, dated 2020)

Assay: Solubility of redox-active electrolyte species in aqueous electrolyte

Structure (SMILES): CCCCCC[n+]1ccc(-c2cc[n+](CCCCCC)cc2)cc1 [Hexyl viologen]
- solubility in the presence of NaBr (aqueous, in the presence of NaBr): < 500 mM

Structure (SMILES): CCCCCCC[n+]1ccc(-c2cc[n+](CCCCCCC)cc2)cc1.[Br-].[Br-] [HV]
- solubility (aqueous electrolyte): < 200 mM
